Laboratory results published in BindingDB's records for doi:10.1021/jf000548p (Institut Pasteur Korea, 2020).

What was measured:
Cytochrome P450 3A4 = Cytochrome P450 3A4 (Homo sapiens, UniProt P08684); experiment: Inhibition of CYP3A4 (unknown origin)
Cytochrome P450 2C9 = Cytochrome P450 2C9 (Homo sapiens, UniProt P11712); experiment: Inhibition of CYP2C9 (unknown origin)
Cytochrome P450 1A2 = biological target: T1, Cytochrome P450 1A2 (Homo sapiens, UniProt P05177); experiment: Inhibition of CYP1A2 (unknown origin)
T1 sequence (P05177 whole entry): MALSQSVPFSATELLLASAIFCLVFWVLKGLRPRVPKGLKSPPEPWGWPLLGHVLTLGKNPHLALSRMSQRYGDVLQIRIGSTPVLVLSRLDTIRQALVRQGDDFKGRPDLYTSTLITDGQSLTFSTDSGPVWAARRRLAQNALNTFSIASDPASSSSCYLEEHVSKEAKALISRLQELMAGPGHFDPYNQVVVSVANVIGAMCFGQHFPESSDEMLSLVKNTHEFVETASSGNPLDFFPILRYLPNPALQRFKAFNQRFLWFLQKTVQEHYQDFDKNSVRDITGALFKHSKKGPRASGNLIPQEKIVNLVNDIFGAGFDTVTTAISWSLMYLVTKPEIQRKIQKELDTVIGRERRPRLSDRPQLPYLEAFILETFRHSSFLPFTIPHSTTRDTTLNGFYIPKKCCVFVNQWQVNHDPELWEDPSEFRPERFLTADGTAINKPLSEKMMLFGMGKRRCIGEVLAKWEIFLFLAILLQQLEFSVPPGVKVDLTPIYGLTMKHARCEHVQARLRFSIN

Cytochrome P450 2D6 = Cytochrome P450 2D6 (Homo sapiens, UniProt P10635); experiment: Inhibition of CYP2D6 (unknown origin)
[1] = biological target: Potassium voltage-gated channel subfamily H member 2 (Homo sapiens, UniProt Q12809); experiment: Inhibition of hERG
Cytochrome P450 2C19 = Cytochrome P450 2C19 (Homo sapiens, UniProt P33261); experiment: Inhibition of CYP2C19 (unknown origin)
Cytochrome P450 2C19, sequence (P33261 whole entry): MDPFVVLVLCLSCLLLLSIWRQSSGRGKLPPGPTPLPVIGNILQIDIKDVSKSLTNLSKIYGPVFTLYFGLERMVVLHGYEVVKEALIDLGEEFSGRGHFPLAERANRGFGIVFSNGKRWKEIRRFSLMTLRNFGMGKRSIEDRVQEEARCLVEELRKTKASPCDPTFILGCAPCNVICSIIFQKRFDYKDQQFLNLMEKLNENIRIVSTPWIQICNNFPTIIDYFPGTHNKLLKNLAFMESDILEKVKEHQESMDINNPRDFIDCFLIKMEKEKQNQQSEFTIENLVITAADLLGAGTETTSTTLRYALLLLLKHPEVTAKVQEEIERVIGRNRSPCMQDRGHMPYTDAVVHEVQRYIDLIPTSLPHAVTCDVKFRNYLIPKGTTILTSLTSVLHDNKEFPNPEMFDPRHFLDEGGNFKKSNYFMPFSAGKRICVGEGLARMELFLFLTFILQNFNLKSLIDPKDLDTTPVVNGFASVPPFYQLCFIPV

Potassium voltage-gated channel subfamily H member 2, sequence (Q12809 whole entry): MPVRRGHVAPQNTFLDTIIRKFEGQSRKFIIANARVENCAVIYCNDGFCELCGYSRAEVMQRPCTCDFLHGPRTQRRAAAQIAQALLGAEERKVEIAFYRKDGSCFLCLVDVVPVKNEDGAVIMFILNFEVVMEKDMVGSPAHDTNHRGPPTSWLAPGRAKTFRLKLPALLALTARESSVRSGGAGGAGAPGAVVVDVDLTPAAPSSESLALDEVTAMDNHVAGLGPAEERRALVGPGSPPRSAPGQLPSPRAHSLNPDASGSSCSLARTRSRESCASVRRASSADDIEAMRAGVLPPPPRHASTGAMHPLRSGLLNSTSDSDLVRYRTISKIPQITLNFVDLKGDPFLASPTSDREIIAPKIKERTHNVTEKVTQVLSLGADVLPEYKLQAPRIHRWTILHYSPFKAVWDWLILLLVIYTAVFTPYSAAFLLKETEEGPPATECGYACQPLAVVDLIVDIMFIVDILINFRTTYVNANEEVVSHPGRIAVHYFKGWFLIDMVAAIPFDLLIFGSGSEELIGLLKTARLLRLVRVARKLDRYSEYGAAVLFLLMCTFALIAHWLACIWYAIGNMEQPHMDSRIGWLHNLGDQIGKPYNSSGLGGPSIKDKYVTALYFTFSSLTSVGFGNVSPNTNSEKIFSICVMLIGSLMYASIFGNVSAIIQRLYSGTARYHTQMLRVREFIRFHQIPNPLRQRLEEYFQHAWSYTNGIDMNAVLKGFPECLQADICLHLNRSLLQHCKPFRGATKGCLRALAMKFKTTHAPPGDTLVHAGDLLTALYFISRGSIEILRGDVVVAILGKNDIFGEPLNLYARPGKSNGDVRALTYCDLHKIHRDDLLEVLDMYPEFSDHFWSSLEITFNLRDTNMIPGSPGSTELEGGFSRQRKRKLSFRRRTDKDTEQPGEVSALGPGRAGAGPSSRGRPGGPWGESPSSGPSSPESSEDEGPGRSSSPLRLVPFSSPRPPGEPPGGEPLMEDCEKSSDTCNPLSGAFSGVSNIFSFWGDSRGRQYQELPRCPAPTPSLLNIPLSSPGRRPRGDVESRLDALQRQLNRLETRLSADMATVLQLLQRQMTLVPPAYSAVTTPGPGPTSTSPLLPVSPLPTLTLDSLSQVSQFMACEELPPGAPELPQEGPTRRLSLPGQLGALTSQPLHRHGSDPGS
Cytochrome P450 2C9, sequence (P11712 whole entry): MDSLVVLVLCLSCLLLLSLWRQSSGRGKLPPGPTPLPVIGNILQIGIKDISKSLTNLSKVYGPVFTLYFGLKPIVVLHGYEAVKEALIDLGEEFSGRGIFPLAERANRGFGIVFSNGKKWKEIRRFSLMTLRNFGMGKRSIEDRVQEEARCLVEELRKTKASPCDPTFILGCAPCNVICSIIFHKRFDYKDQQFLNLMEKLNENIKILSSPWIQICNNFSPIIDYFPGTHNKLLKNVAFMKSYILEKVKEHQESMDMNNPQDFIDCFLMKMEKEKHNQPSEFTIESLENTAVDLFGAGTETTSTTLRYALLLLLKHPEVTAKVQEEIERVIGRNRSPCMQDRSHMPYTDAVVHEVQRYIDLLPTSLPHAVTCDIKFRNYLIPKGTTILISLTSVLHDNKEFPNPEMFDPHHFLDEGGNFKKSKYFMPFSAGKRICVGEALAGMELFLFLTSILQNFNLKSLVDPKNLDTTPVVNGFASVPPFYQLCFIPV
Cytochrome P450 3A4, sequence (P08684 whole entry): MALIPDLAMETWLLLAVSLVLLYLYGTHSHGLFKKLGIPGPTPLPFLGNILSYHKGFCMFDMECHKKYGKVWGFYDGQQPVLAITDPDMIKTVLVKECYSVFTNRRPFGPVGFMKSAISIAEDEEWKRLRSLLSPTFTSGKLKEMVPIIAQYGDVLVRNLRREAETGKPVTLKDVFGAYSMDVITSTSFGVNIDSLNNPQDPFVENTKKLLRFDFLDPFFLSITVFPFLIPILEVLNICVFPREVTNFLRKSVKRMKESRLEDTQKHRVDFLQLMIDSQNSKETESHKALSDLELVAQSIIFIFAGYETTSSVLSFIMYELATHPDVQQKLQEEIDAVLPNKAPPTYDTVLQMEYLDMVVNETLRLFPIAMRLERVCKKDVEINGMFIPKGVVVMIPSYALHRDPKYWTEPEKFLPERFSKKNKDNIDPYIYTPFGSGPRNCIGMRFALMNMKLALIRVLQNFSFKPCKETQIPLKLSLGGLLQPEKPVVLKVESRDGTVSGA
Cytochrome P450 2D6, sequence (P10635 whole entry): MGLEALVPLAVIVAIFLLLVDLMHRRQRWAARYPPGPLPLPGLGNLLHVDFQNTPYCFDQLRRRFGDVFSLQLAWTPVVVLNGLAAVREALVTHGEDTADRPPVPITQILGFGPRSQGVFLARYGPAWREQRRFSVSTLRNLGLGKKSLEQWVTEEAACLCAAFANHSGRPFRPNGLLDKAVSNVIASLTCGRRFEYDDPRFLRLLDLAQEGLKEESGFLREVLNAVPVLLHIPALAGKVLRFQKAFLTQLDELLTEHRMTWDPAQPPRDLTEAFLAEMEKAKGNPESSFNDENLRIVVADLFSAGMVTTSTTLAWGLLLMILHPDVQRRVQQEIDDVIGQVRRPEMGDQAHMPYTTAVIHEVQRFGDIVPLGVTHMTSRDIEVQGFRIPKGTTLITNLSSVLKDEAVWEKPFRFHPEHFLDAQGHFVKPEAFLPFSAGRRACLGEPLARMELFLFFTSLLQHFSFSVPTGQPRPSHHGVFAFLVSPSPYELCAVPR

SMILES	IC50 (Cytochrome P450 3A4)	IC50 (Cytochrome P450 2C9)	IC50 (Cytochrome P450 1A2)	IC50 (Cytochrome P450 2D6)	IC50 [1]	IC50 (Cytochrome P450 2C19)
Cc1nc2cc(NC(=O)c3cc4sc(N5CCC(C(=O)N(C)C)CC5)nc4s3)ccc2o1	> 50 µM	> 50 µM	> 50 µM	> 50 µM	> 30 µM	> 50 µM
O=C(Nc1ccc(-c2ccc(F)cn2)cc1)c1cc2sc(NCCN3CCOCC3)nc2s1	6.95 µM	7.41 µM	> 100 µM	6.85 µM	27.6 µM	> 100 µM
